± gives the expanded uncertainty stated by the source.
Tests used:
[1] = cn = amount concentration of the nth substance listed, in mol/dm3; details: 298.15 K, 101 kPa, Liquid, Alternating current cell with electrodes
[2] = mn = molality of the nth substance listed, in mol/kg; details: 298.15 K, 101 kPa, Liquid; for viscosity: Capillary tube (Ostwald / Ubbelohde) method; for mass density: Vibrating tube method

CCCCn1cc[n+](C)c1.[Cl-] [1-butyl-3-methylimidazolium chloride] + O
[1]
Details	molar conductivity [S·m2/mol]
c1 = 0.0004734	0.0107 ± 0.00043
c1 = 0.0006936	0.0106 ± 0.00042
c1 = 0.0008909	0.0106 ± 0.00042
c1 = 0.001113	0.0105 ± 0.00042
c1 = 0.001311	0.0105 ± 0.00042
c1 = 0.001497	0.0105 ± 0.00042
c1 = 0.00167	0.0105 ± 0.00042
c1 = 0.001839	0.0104 ± 0.00042
c1 = 0.001984	0.0104 ± 0.00042
c1 = 0.002099	0.0104 ± 0.00042

CCCCCCCCCCn1cc[n+](C)c1.[Cl-] [1-decyl-3-methylimidazolium chloride] + O
[1]
Details	molar conductivity [S·m2/mol]
c1 = 0.0001226	0.00997 ± 0.0004
c1 = 0.0002378	0.00993 ± 0.0004
c1 = 0.0003622	0.0099 ± 0.0004
c1 = 0.0004428	0.00987 ± 0.0004
c1 = 0.0005678	0.00984 ± 0.00039
c1 = 0.000679	0.00981 ± 0.00039
c1 = 0.0007671	0.0098 ± 0.00039
c1 = 0.0008693	0.00978 ± 0.00039
c1 = 0.001044	0.00975 ± 0.00039
c1 = 0.001192	0.00974 ± 0.00039
c1 = 0.001374	0.00972 ± 0.00039
c1 = 0.00153	0.0097 ± 0.00039

CCCCCCn1cc[n+](C)c1.[Cl-] [1-hexyl-3-methylimidazolium chloride] + O
[1]
Details	molar conductivity [S·m2/mol]
c1 = 0.0001239	0.0103 ± 0.00041
c1 = 0.0002407	0.0103 ± 0.00041
c1 = 0.0003449	0.0102 ± 0.00041
c1 = 0.0004557	0.0102 ± 0.00041
c1 = 0.0005824	0.0102 ± 0.00041
c1 = 0.0007219	0.0101 ± 0.0004
c1 = 0.0008733	0.0101 ± 0.0004
c1 = 0.0009879	0.0101 ± 0.0004
c1 = 0.001214	0.0101 ± 0.0004
c1 = 0.001417	0.01 ± 0.0004
c1 = 0.001669	0.01 ± 0.0004
c1 = 0.001927	0.00999 ± 0.0004

CCCCCCCC[n+]1ccn(C)c1.[Cl-] [1-methyl-3-octylimidazolium chloride] + O
[1]
Details	molar conductivity [S·m2/mol]
c1 = 0.0003264	0.0101 ± 0.0004
c1 = 0.000434	0.0101 ± 0.0004
c1 = 0.0005416	0.01 ± 0.0004
c1 = 0.0006484	0.01 ± 0.0004
c1 = 0.0007536	0.01 ± 0.0004
c1 = 0.0008878	0.00997 ± 0.0004
c1 = 0.001103	0.00995 ± 0.0004
c1 = 0.001269	0.00993 ± 0.0004
c1 = 0.001538	0.0099 ± 0.0004
c1 = 0.001689	0.00989 ± 0.0004
c1 = 0.001863	0.00987 ± 0.0004

O=C[C@H](O)[C@@H](O)[C@@H](O)[C@H](O)CO [(+)-galactose] + O
[2]
Details	mass density [kg/m3]	viscosity [mPa·s]
m1 = 0.2	1010.73 ± 0.07	0.97 ± 0.007
m1 = 0.4	1023.81 ± 0.11	1.06 ± 0.007
m1 = 0.6	1036.28 ± 0.16	1.16 ± 0.008
m1 = 0.8	1048.23 ± 0.2	1.267 ± 0.009
m1 = 1	1059.6 ± 0.2	1.381 ± 0.01
m1 = 1.2	1070.53 ± 0.27	1.5 ± 0.011

O=C[C@H](O)[C@@H](O)[C@H](O)[C@H](O)CO [D-glucose] + O
[2]
Details	mass density [kg/m3]	viscosity [mPa·s]
m1 = 0.2	1010.39 ± 0.14	0.974 ± 0.007
m1 = 0.4	1023.12 ± 0.16	1.066 ± 0.007
m1 = 0.6	1035.32 ± 0.2	1.166 ± 0.008
m1 = 0.8	1046.92 ± 0.23	1.273 ± 0.009
m1 = 1	1057.99 ± 0.26	1.385 ± 0.01
m1 = 1.2	1068.59 ± 0.29	1.501 ± 0.011

O=C[C@H](O)[C@H](O)[C@H](O)CO [D-ribose] + O
[2]
Details	mass density [kg/m3]	viscosity [mPa·s]
m1 = 0.2	1007.85 ± 0.06	0.949 ± 0.007
m1 = 0.4	1018.22 ± 0.09	1.011 ± 0.007
m1 = 0.6	1028.18 ± 0.13	1.077 ± 0.007
m1 = 0.8	1037.77 ± 0.16	1.145 ± 0.008
m1 = 1	1046.98 ± 0.19	1.215 ± 0.008
m1 = 1.2	1055.89 ± 0.22	1.278 ± 0.009

O=C[C@H](O)[C@@H](O)[C@H](O)CO [D-xylose] + O
[2]
Details	mass density [kg/m3]	viscosity [mPa·s]
m1 = 0.2	1007.79 ± 0.06	0.953 ± 0.007
m1 = 0.4	1018.1 ± 0.09	1.022 ± 0.007
m1 = 0.6	1028.02 ± 0.13	1.096 ± 0.008
m1 = 0.8	1037.53 ± 0.16	1.175 ± 0.008
m1 = 1	1046.69 ± 0.19	1.258 ± 0.009
m1 = 1.2	1055.41 ± 0.22	1.344 ± 0.009

— the NIST ThermoML archive (doi:10.1016/j.fluid.2011.11.028)
